Legend:
[1] = test system: MCF-10A; test: Transwell motility of non cancerous cells; assay type: cell-based, human; settings: 10 nM to 1 μM, FIG. 6C
Description: FIG. 6: JPH1701 (or Ohmline) activity on cell motility on cancerous MDA-MB-435s cells and on non cancerous MCF-10A cells. The motility was tested by transwell assay. Additionally, viability tests were performed using MTT assays. FIG. 6A-B) JPH1701 (the concentrations of JPH1701, for the FIG. 6A, are 0 (control condition), 10 nM, 100 nM, 300 nM and 1 μM) reduces motility (FIG. 6A) of MDA-MB-435s wild type (WT) cells from 10 nM without affecting viability (FIG. 6B) except at 10 μM. FIG. 6C-D) MCF-10A motility (FIG. 6C) and viability (FIG. 6D) are not affected by JPH1701 (the concentrations of JPH1701, for the FIG. 6C, are 0 (control condition), 10 nM, 100 nM, 300 nM and 1 μM). FIG. 6E-F) Effect on SK3 dependent motility.
The immortalized normal mammary epithelial cell lines MCF-10A and 184A1 were cultured in DMEM/Ham's F-12, 1:1 mix containing 5% horse serum (Invitrogen Life Technologies, France), insulin (10 μg/ml), epidermal growth factor (20 ng/ml), hydrocortisone (0.5 μg/ml) and, respectively for MCF-10A and 184A1, 100 ng/ml cholera toxin and 1 ng/ml cholera toxin plus 5 μg/ml transferrin.

[2] = target: T1, SK1 (Homo sapiens, UniProt Q92952); test: Whole-cell K+ currents in HEK293 cells expressing recombinant SK1; assay type: cell-based; settings: 10 μM, FIG. 9B
T1 construct: expressed in transfected cells; host or cells: HEK293
Description: (§1) FIG. 9. Selectivity effect of JPH1701 on SKCa subtype and on IKCa channels. FIG. 9A) Example of whole-cell K^+ currents recorded in HEK293 cells expressing recombinants SK1, SK2, SK3 and IKCa channels before and after application of 10 μM JPH1701 (upper graphs: SK1 and SK2 respectively, bottom graphs: SK3 and IKCa respectively). Currents were generated by ramp protocol from −100 mV to +60 mV in 500 ms from a constant holding of 0 mV and with a pCa 6. FIG. 9B) Histograms showing the effect of 10 μM JPH1701 on SKCa (SK1, SK2, SK3) and IKCa current amplitudes recorded at 0 mV. […] For each channel (SK1, SK2, SK3 and IKCa) the left column (pale grey) represents the control result and the right column (dark grey) represents the result after JPH1701 application.
(§2) The selectivity of JPH1701 toward the others members of the SKCa/IKCa channels was tested. […] The experimental protocol was similar to the one used in FIG. 8. JPH1701 was tested for membrane potential from +60 mV to −100 mV on 500 msec.

[3] = target: T2, IKCa (Homo sapiens, UniProt O15554); test: Whole-cell K+ currents in HEK293 cells expressing recombinant IKCa; assay type: cell-based; settings: 10 μM, FIG. 9B
T2 construct: expressed in transfected cells; host or cells: HEK293
Description: as §1, §2

[4] = test system: endogenously HEK potassium current; test: Endogenous HEK potassium current (patch clamp); assay type: cell-based; settings: applied concentration range; data not shown
Description: Whatever the concentration tested approximately 40 sec was needed to reduce 50% of the amplitude of the current. […] Increasing intracellular calcium concentration by the addition of 5 μM A23187 totally reversed the effect of JPH1701 (data not shown).

[5] = test system: PKCs; test: PKCs activity (alpha, Beta 1, Beta 2, Gamma, Delta, Epsilon, Zeta, Eta, Theta, Iota); assay type: biochemical; settings: ten PKCs, FIG. 11C
Description: FIG. 11: Effects of JPH1701 on PAF receptor, PLC and PKCs activities. FIG. 11A) Histogram showing the percentage of control specific binding of 3H-C16-PAF to recombinant PAF receptor obtained from membrane homogenates of CHO cells by 0.3 and 2 μM edelfosine and by 0.3 and 2 μM JPH1701. FIG. 11B) Histogram showing the percentage of control agonist response (% effect i.e: increase of intracellular calcium concentration) of 0.3 and 2 μM edelfosine and JPH1701 on PAF receptor normalized to the response induced by 100 nM C16-PAF. […] FIG. 11C-D) Dose responses curves showing the effect of JPH1701 on PKCs (FIG. 11C, PKCs are: alpha, Beta 1, Beta 2, Gamma, Delta, Epsilon, Zeta, Eta, Theta, Iota) and PhosphoLipase C (PLC) activities (FIG. 11D).

[6] = test system: MDA-MB-435s cells expressing luciferase; test: Experimental metastasis model, cells injected into tail vein, BLI; assay type: in vivo, NMRI nude mice
Description: Female NMRI nude mice, 6 weeks old, were purchased from Janvier laboratories. Mice were bred and housed at INSERM, U892, University of Nantes, under the animal care license no 44565.
MDA-MB-435s were incubated with 1 μM JPH1701 or with 2% DMSO/3% ethanol (vehicle) during 24 h and injected (0.75 106) in iv into the lateral tail vein. Next, mice were treated three times a week for 12 weeks with JPH1701 at 15 mg/kg in i.v. or with vehicle.
All of the mice were assessed weekly using whole-body bioluminescent imaging to quantify relative amounts of metastasis burden (ΦImageur™; BIOSPACE Lab, France). Each mouse was given potassium salt of D-luciferin (Interchim) at dose of 150 mg/kg body weight by intraperitoneal injection and anesthetized with Ketamin/xylasin i.p. injection. […] Regions of interest were drawn around the experimental metastases. The amount of metastasis burden within each region of interest was quantified as the relative amount of light produced from the luciferase activity in breast cancer cells and expressed in cpm using the Photovision+ software (version 1.3; Biospace Lab). At necropsy, ex vivo BLI measurement were performed for each tissues collected.
To determine whether a SK3/KCa2.3 blocker such as JPH1701 could prevent metastasis development, we used a model of experimental metastasis with MDA-MB-435s cells expressing the firefly luciferase gene. Cancer cells were injected directly to the systemic circulation into the vein tail. One cohort of mice was treated with JPH1701 three times a week for 12 weeks by i.v. administration. Another cohort was treated with the vehicle in the same conditions. At the end of treatment, metastases were visualized in vivo by bioluminescence imaging (BLI) in 70% (7/10) of control mice and only in 40% (4/10) of JPH1701 treated-mice (Table 4). To go further, mice were sacrificed and detection of metastases in different tissues was performed ex vivo by BLI. The number of positive tissues from each cohort was show in Table 4. Metastatic lesions were detected in all vehicle-treated mice.

[7] = 15 mg/kg i.v. three times a week, 12 weeks, N = 10
[8] = 15 mg/kg i.v., 12 weeks, N = 10

T2 sequence (O15554 whole entry): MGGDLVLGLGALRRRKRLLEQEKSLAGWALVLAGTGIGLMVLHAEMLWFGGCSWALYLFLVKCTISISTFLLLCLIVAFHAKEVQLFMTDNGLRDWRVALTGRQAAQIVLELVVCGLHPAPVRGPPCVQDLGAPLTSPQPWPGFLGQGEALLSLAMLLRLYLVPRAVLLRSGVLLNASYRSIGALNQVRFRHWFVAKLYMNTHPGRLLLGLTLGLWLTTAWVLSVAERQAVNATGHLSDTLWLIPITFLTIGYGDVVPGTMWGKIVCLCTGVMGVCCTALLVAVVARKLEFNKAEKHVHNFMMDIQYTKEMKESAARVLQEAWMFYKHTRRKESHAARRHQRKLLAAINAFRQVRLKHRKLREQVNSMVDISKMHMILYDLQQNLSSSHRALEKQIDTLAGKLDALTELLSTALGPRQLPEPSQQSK
T1 sequence (Q92952 whole entry): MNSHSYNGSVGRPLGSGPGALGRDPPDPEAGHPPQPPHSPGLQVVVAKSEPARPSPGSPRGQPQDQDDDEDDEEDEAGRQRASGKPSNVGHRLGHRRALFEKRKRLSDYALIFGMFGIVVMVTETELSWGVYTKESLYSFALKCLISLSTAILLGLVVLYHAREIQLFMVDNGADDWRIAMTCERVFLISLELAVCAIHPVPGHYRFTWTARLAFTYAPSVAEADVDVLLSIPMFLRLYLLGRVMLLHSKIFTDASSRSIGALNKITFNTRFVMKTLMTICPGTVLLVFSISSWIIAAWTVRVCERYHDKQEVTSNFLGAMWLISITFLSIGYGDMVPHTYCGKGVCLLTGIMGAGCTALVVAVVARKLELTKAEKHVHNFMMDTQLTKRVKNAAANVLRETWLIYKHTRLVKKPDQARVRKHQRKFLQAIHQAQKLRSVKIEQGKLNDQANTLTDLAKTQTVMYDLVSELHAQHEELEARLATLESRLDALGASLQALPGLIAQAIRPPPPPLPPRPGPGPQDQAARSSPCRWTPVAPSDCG

hexadecyloxy-2-O-methyl-sn-glycerol-lactose [JPH1701]
Effect on cell migration of non-cancerous cells [1]: did not affected | Effect on SK1 current amplitude at 0 mV [2]: significantly reduced | Effect on IKCa currents [3]: inactive | Effect on endogenous HEK potassium current [4]: not significantly affected | Effect on PKC activity [5]: did not affect | Adverse effects in mice ([6]; 15 mg/kg i.v. three times a week for 12 weeks): No adverse effects | Number of mice with experimental metastases detected ex vivo by BLI [6, 7]: 7 | Number of mice with experimental metastases detected in vivo by BLI [6, 7]: 4 | Mice with no sign of metastasis development ex vivo ([6]; 15 mg/kg i.v., 12 weeks): 30% | Number of tissues with metastases detected by BLI: column [6, 8]: 2 | Number of tissues with metastases detected by BLI: kidney [6, 8]: 0 | Number of tissues with metastases detected by BLI: leg [6, 8]: 3 | Number of tissues with metastases detected by BLI: liver [6, 8]: 0 | Number of tissues with metastases detected by BLI: lung [6, 8]: 5 | Number of tissues with metastases detected by BLI: lymph node [6, 8]: 1 | Number of tissues with metastases detected by BLI: ovary/uterus [6, 8]: 0 | Number of tissues with metastases detected by BLI: spleen [6, 8]: 0 | Mice with metastases visualized in vivo by BLI at the end of treatment ([6]; 15 mg/kg i.v., 12 weeks, control 70%): 40% | Metastatic profile ([6]; FIGS. 10A-D): shifted the metastatic profile toward a less one | Additional wait until 75% of mice present detectable metastases (vehicle: week 4) ([6]; mice with metastases in vivo on week 12): 3 weeks | Metastasis appearance, times faster in control group than in treated group ([6]; mice with metastases in vivo on week 12, FIG. 10E): roughly 3 times

Source: patent US9161944B2, “Method for preventing cancer metastasis” (INSERM (INSTITUT NATIONAL DE LA SANTE ET DE LA SANTE ET DE …, priority 2010, dated 2015)
